Assay results from ChEMBL document CHEMBL5154799, “Discovery of a Novel Stilbene Derivative as a Microtubule Targeting Agent Capable of Inducing Cell Ferroptosis” (J Med Chem, 2022).
The source made the active and inactive calls. No cut-off for these calls is given here.

Legend:
[1] = Acute toxicity in rat assessed as median lethal dose after at 175 to 550 mg/kg for 14 days; assay type: organism-based; conditions: in vivo, dose 175-550 mg/kg, time 14 day
A549 [2] = experiment: Induction of ferroptosis in human A549 cells assessed as induction of lipid […] accumulation at 5 to 20 nM incubated for 24 hrs by C11-BODIPY-581/591 staining based flow cytometry analysis; assay type: functional, cell-based; conditions: dose 5-20 nM
A549 [3] = experiment: Cell cycle arrest in human A549 cells assessed as increase in accumulation in G2/M phase at 5 to 20 nM by PI staining based flow cytometry analysis; assay type: functional; conditions: dose 5-20 nM, time 24-48 hrs, TDE = time-dependent effect
[4] = Selectivity ratio of IC50 for cytotoxicity against HUVEC cells assessed as reduction in cell viability to IC50 for cytotoxicity against human A549 cells assessed as reduction in cell viability; assay type: toxicity, cell-based; conditions: HUVEC cells versus A549 cells
Tubulin = experiment: Inhibition of tubulin polymerization (unknown origin) assessed as fluorescence intensity emission at 410 nm for 60 mins; assay type: protein-complex assay, Homo sapiens
[5] = Acute oral toxicity in rat assessed as survival at 17.5 to 175 mg/kg measured over 8 hours daily for 14 days; assay type: organism-based; conditions: in vivo, 336 h, dose 17.5-175 mg/kg, time 14 day
[6] = Oral bioavailability in ICR mouse at 10 mg/kg single administration measured for 24 hrs post treatment by LC-MS/MS analysis; assay type: ADME, organism-based; conditions: in vivo
A549 [7] = experiment: Induction of ferroptosis in human A549 cells assessed as rupture of plasma membrane incubated for 24 hrs by CCK-8 assay; assay type: functional, cell-based
A549 [8] = experiment: Induction of apoptosis in human A549 cells assessed as cell viability pretreated with ferroptosis inhibitor desferoxamine for 24 hrs followed by incubation with compound at 20 nM and measured after 48 hrs by CCK-8 assay; assay type: functional, cell-based
A549 [9] = experiment: Induction of cell death in human A549 cells assessed as increased mitochondrial membrane density at 10 nM for 12 hrs by TEM analysis; assay type: functional, cell-based
[10] = Toxicity in human A549 cells xenografted in athymic nude BALB/c nude mouse assessed as morphological changes in heart at 10 mg/kg, ip measured after 30 days by H and E staining based histological analysis; assay type: organism-based; conditions: in vivo, 720 h, time 30 day
A2780 [11] = experiment: Antiproliferative activity against human A2780 cells assessed as cell viability incubated for 48 hrs by MTT assay; assay type: functional, cell-based; conditions: A2780, 48 h
[12] = Cmax in ICR mouse at 10 mg/kg, po single administration measured for 24 hrs post treatment by LC-MS/MS analysis; assay type: ADME, organism-based; design: time 24 hrs, dose 10 mg/kg, route po; conditions: in vivo
PC-3 = experiment: Antiproliferative activity against human PC-3 cells assessed as inhibition of cell proliferation incubated for 2 hrs by CCK-8 assay; assay type: functional, cell-based; conditions: DDE = dose-dependent effect
MCF7 = experiment: Antiproliferative activity against human MCF7 cells assessed as inhibition of cell proliferation incubated for 2 hrs by CCK-8 assay; assay type: functional, cell-based; conditions: DDE = dose-dependent effect
[13] = target: T1, Phospholipid hydroperoxide glutathione peroxidase GPX4 (Homo sapiens) (UniProt P36969); experiment: Inhibition of GPX4 in human A549 cells assessed as decrease in GPX4 protein […] at 5 to 20 uM for 24 hrs by Western blotting analysis; assay type: cell-based; conditions: dose 5-20 µM
T1 sequence (whole entry): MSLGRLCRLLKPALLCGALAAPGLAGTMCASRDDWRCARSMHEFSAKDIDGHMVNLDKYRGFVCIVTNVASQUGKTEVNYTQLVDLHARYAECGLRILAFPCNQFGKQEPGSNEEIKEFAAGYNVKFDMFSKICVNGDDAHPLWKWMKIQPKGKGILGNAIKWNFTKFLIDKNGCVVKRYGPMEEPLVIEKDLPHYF

A549 [14] = experiment: Antiproliferative activity against human A549 cells assessed as inhibition of cell proliferation incubated for 2 hrs by CCK-8 assay; assay type: functional, cell-based; conditions: DDE = dose-dependent effect
HeLa [15] = experiment: Antiproliferative activity against human HeLa cells assessed as cell viability incubated for 48 hrs by MTT assay; assay type: functional, cell-based
HUVEC = experiment: Vascular disruptive effect in HUVEC cells assessed as reduction in tube formation at 10 nM measured after 6 to 9 hrs; assay type: functional, cell-based; conditions: Homo sapiens, time 6-9 hrs
A549 [16] = experiment: Cytotoxicity against human A549 cells assessed as reduction in cell viability; assay type: functional, cell-based
[17] = AUC (0 to infinity) in ICR mouse at 10 mg/kg, po single administration measured for 24 hrs post treatment by LC-MS/MS analysis; assay type: ADME, organism-based; design: time 24 hrs, dose 10 mg/kg, route po; conditions: in vivo
[18] = Half life in ICR mouse at 1 mg/kg, iv single administration measured for 24 hrs post treatment by LC-MS/MS analysis; assay type: ADME, organism-based; conditions: in vivo
HeLa [19] = experiment: Antiproliferative activity against human HeLa cells assessed as inhibition of cell proliferation incubated for 2 hrs by CCK-8 assay; assay type: functional, cell-based; conditions: DDE = dose-dependent effect
MGC-803 = experiment: Antiproliferative activity against human MGC-803 cells assessed as inhibition of cell proliferation incubated for 2 hrs by CCK-8 assay; assay type: functional, cell-based; conditions: DDE = dose-dependent effect
Tubulin (Homo sapiens) [20] = target: T2, Tubulin (Homo sapiens) (UniProt P68371+Q9H4B7+P0DPH7+P68366+Q13509+Q71U36+P04350+Q3ZCM7+P07437+P68363+Q9BQE3+Q6PEY2+Q13885+Q9BVA1+Q9BUF5); experiment: Inhibition of [3H]colchicine binding to tubulin (unknown origin) at 1.25 uM by competitive binding assay relative to control; assay type: protein-complex assay
[21] = Tmax in ICR mouse at 1 mg/kg, iv single administration measured for 24 hrs post treatment by LC-MS/MS analysis; assay type: ADME, organism-based; conditions: in vivo
Tubulin (Homo sapiens) [22] = target: T2, Tubulin (Homo sapiens); experiment: Inhibition of tubulin polymerization (unknown origin) by microplate reader analysis; assay type: protein-complex assay; conditions: dose 5-0.16 µM, DDE = dose-dependent effect
Tubulin (Homo sapiens) [23] = target: T2, Tubulin (Homo sapiens); experiment: Inhibition of [3H]colchicine binding to tubulin (unknown origin) at 0.075 uM by competitive binding assay relative to control; assay type: protein-complex assay
A549 [24] = experiment: Induction of ferroptosis in human A549 cells assessed as cell swelling incubated for 24 hrs by CCK-8 assay; assay type: functional, cell-based
[25] = Toxicity in athymic nude BALB/c mouse assessed as change in body weight at 10 mg/kg, ip measured for 30 days; assay type: organism-based; conditions: in vivo, 720 h, time 30 day
[26] = MRT in ICR mouse at 10 mg/kg, po single administration measured for 24 hrs post treatment by LC-MS/MS analysis; assay type: ADME, organism-based; conditions: in vivo
Tubulin (Homo sapiens) [27] = target: T2, Tubulin (Homo sapiens); experiment: Induction of microtubule disruption in human A549 cells assessed as shrunken spindle shaped microtubule structure at 5 to 20 uM incubated for 12 hrs by immunofluorescence based laser scanning confocal microscopic analysis; assay type: cell-based; conditions: dose 5-20 µM
A2780 [28] = experiment: Antiproliferative activity against human A2780 cells assessed as inhibition of cell proliferation incubated for 2 hrs by CCK-8 assay; assay type: functional, cell-based; conditions: DDE = dose-dependent effect
Tubulin (Homo sapiens) [29] = target: T2, Tubulin (Homo sapiens); experiment: Inhibition of [3H]colchicine binding to tubulin (unknown origin) at 10 uM by competitive binding assay relative to control; assay type: protein-complex assay
Tubulin (Homo sapiens) [30] = target: T2, Tubulin (Homo sapiens); experiment: Inhibition of [3H]colchicine binding to tubulin (unknown origin) at 5 uM by competitive binding assay relative to control; assay type: protein-complex assay
[31] = Acute oral toxicity in rat assessed as death at 550 mg/kg measured over 8 hours daily for 14 days; assay type: organism-based; conditions: in vivo, 336 h, time 14 day
A549 [32] = experiment: In vivo antitumor activity against human A549 cells xenografted in athymic nude BALB/c mouse assessed as tumor volume at 10 mg/kg measured after 30 days (reference value: 1503.3 mm^3); assay type: functional; conditions: time 30 day

Compound: C=C(c1cc(OC)c(OC)c(OC)c1)c1ccc(OC)c(O)c1NC(=O)CO
- LD50 at 336 h [1]: 327 mg/kg
- Activity (A549 [2]): Active
- Activity (A549 [3]): Tde
- selectivity ratio [4]: 4
- IC50 (Tubulin): 580 nM
- Activity [5]: Non-Toxic
- bioavailability [6]: 69.5%
- Activity (A549 [7]): Active
- Activity (A549 [8]): Active
- Activity (A549 [9]): Active
- Activity [10]: Non-Toxic
- IC50 (A2780 [11]): 20 nM
- Cmax [12]: 776 ng/mL
- Activity (PC-3): Dde
- Activity (MCF7): Dde
- Activity [13]: Active
- Activity (A549 [14]): Dde
- IC50 (HeLa [15]): 20 nM
- Activity (HUVEC): Active
- IC50 (A549 [16]): 10 nM
- AUC [17]: 2463.76 h/ng/mL
- half-life [18]: 37.2 min
- Activity (HeLa [19]): Dde
- Activity (MGC-803): Dde
- inhibition (Tubulin (Homo sapiens) [20]): 48.4%
- Tmax [21]: 4.8 min
- inhibition (Tubulin (Homo sapiens) [22]): Dde
- inhibition (Tubulin (Homo sapiens) [23]): 16.7%
- Activity (A549 [24]): Active
- Activity [25]: Non-Toxic
- MRT [26]: 2.57 h
- Activity (Tubulin (Homo sapiens) [27]): Active
- Activity (A2780 [28]): Dde
- inhibition (Tubulin (Homo sapiens) [29]): 85%
- inhibition (Tubulin (Homo sapiens) [30]): 78.5%
- Activity [31]: Toxic
- Activity (A549 [32]): 321.1 mm3
